Assay results taken from patent US6469196B2, “Dialkyl phenyl halide-substituted keto-enols for use as herbicides and pesticides” (Bayer Aktiengesellschaft, priority 1995, dated 2002).

What was measured:
Assay type in all cases: in vivo
[1] = test system: mustard beetle larvae (Phaedon cochleariae); test: Phaedon larvae test; conditions: active compound concentration 0.1%; after 7 days; dipped cabbage leaves (Brassica oleracea)
Procedure: Phaedon larvae Test Solvent: 7 parts by weight of dimethylformamide Emulsifier: 1 part by weight of alkylaryl polyglycol ether To produce a suitable preparation of active compound, 1 part by weight of active compound is mixed with the stated amount of solvent and the stated amount of emulsifier, and the concentrate is diluted with water to the desired concentration. Cabbage leaves (Brassica oleracea) are treated by being dipped into the preparation of the active compound of the desired concentration and are infested with mustard beetle larvae (Phaedon cochleariae), while the leaves are still moist. […] 100% means that all the beetle larvae have been killed; 0% means that none of the beetle larvae have been killed.

[2] = test system: green rice leafhopper (Nephotettix cincticeps); test: Nephotettix test; conditions: active compound concentration 0.1%; after 6 days; dipped rice seedlings (Oryza sativa)
Procedure: (§1) Nephotettix Test Solvent: 7 parts by weight of dimethylformamide Emulsifier: 1 part by weight of alkylaryl polyglycol ether To produce a suitable preparation of active compound, 1 part by weight of active compound is mixed with the stated amount of solvent and the stated amount of emulsifier, and the concentrate is diluted with water to the desired concentration. Rice seedlings (Oryza sativa) are treated by being dipped into the preparation of the active compound of the desired concentration and are infested with the green rice leafhopper (Nephotettix cincticeps) while the leaves are still moist. After the specified period of time, the destruction in % is determined. 100% means that all the leafhoppers have been killed; 0% means that none of the leafhoppers have been killed.

[3] = test system: peach aphid (Myzus persicae); test: Myzus test; conditions: active compound concentration 0.1%; after 6 days; dipped infested cabbage leaves (Brassica oleracea)
Procedure: as §1, with “Myzus” for “Nephotettix”, “Cabbage leaves (Brassica oleracea) which have been heavily infested with the peach aphid (Myzus persicae)” for “Rice seedlings (Oryza sativa)”, “concentration.” for “concentration and are infested with the green rice leafhopper (Nephotettix cincticeps) while the leaves are still moist.”, “aphids” for “leafhoppers”

[4] = test system: common spider mite or two-spotted spider mite (Tetranychus urticae); test: Tetranychus test (OP-resistant/dipping treatment); conditions: active compound concentration 0.1%; after 13 days; dipped infested bean plants (Phaseolus vulgaris)
Procedure: Tetranychus Test (OP-resistant/dipping Treatment)
Solvent: 7 parts by weight of dimethylformamide
Emulsifier: 1 part by weight of alkylaryl polyglycol ether
To produce a suitable preparation of active compound, 1 part by weight of active compound is mixed with the stated amount of solvent and the stated amount of emulsifier, and the concentrate is diluted with water to the desired concentration.
Bean plants (Phaseolus vulgaris) which have been heavily infested with the common spider mite or two-spotted spider mite (Tetranychus urticae) in all stages of development are treated by being dipped into the preparation of the active compound of the desired concentration.
After the specified period of time, the destruction in % is determined. 100% means that all the spider mites have been killed; 0% means that none of the spider mites have been killed.

[5] = test system: caterpillars of the diamond-back moth (Plutella xylostella); test: Plutella test; conditions: active compound concentration 0.1%; after 7 days; dipped cabbage leaves (Brassica oleracea)
Procedure: Plutella Test Solvent: 7 parts by weight of dimethylformamide Emulsifier: 1 part by weight of alkylaryl polyglycol ether To produce a suitable preparation of active compound, 1 part by weight of active compound is mixed with the stated amount of solvent and the stated amount of emulsifier, and the concentrate is diluted with water to the desired concentration. Cabbage leaves (Brassica oleracea) are treated by being dipped into the preparation of the active compound of the desired concentration and are infested with caterpillars of the diamond-back moth (Plutella xylostella) while the leaves are still moist. After the specified period of time, the destruction in % is determined. 100% means that all the caterpillars have been killed; 0% means that none of the caterpillars have been killed.

Cc1cc(Br)cc(C)c1C1=C(O)C2(CCCC(C)C2)NC1=O (stereo not drawn) [Example I-1-a-1]
100%: destruction in % [1] | destruction in % [2]

Cc1cc(C)c(C2=C(O)C3(CCCCC3)OC2=O)c(Br)c1 [Example I-2-a-1]
100%: destruction in % [1] | destruction in % [2] | destruction in % [3] | action (destruction in %) [4]

Cc1cc(C)c(C2=C(OC(=O)C(C)(C)C)C3(CCCCC3)OC2=O)c(Br)c1 [Example I-2-b-1]
100%: destruction in % [1] | destruction in % [5] | destruction in % [2]
